What all share (type): cell-based
The target in one assay is T1, human PAC1 receptor (Homo sapiens, UniProt P41586).
T1 construct: expressed in transfected cells; host or cells: CHO cells (G418 selection)
T1 sequence (P41586 21-468): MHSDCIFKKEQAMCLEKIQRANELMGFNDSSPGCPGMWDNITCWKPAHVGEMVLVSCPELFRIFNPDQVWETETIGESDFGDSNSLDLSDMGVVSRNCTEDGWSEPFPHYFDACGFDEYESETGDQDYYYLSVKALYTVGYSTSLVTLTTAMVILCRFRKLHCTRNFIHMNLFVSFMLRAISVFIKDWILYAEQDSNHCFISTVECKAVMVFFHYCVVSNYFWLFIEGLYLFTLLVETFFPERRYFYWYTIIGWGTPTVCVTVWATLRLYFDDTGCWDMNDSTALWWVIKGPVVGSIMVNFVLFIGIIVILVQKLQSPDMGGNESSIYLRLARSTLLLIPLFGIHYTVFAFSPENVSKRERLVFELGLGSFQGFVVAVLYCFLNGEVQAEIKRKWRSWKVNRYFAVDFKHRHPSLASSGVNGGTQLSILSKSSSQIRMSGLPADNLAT
The experiment in a line: cAMP stimulation in CHO cells expressing PAC1. To be noted: for Emax: CHO. In short, it runs like this:
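Serum-starved CHO cells expressing human receptors were pre-treated 20 min with 500 μM IBMX, then exposed to agonist concentration curves for 10 min in 500 μM IBMX. cAMP quantified by competition with bovine PKA and ^3H-cAMP (1 h, room temperature), scintillation read.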

The target of the next assay is T2, human VPAC1 receptor (Homo sapiens, UniProt P32241).
T2 construct: expressed in transfected cells; host or cells: CHO cells (G418 selection)
T2 sequence (P32241 31-457): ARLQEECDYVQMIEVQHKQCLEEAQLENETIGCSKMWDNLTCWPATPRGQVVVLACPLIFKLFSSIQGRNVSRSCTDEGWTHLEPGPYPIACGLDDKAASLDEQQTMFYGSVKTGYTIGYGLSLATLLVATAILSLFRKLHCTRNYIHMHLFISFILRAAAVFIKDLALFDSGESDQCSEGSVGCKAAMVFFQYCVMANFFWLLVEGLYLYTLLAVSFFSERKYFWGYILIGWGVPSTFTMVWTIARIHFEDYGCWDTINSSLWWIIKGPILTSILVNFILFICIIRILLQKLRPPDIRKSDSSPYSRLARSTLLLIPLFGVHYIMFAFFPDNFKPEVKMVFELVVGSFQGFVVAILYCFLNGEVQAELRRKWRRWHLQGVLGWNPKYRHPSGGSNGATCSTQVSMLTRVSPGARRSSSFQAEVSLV
As to the kind of experiment: cAMP stimulation in CHO cells expressing VPAC1. To be noted: for Emax: CHO, read-out: VPAC1 Emax; for Receptor selectivity ratio VPAC1/PAC1: ratio of cAMP EC50 values; for EC50: read-out: VPAC1 EC50.

Another assay deals with T3, human VPAC2 receptor (Homo sapiens, UniProt P41587).
T3 construct: expressed in transfected cells; host or cells: CHO cells (G418 selection)
T3 sequence (P41587 24-438): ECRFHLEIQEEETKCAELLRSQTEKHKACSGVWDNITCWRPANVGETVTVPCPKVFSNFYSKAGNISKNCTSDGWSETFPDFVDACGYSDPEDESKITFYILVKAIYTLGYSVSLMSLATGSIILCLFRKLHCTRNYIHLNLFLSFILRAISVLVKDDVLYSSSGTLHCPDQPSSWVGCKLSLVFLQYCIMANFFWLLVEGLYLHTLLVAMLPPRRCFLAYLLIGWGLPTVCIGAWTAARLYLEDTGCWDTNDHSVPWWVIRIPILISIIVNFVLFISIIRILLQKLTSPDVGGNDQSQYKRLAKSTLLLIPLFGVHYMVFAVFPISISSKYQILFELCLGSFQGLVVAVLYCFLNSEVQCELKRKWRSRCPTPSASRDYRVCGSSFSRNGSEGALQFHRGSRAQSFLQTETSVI
The experiment in a line: cAMP stimulation in CHO cells expressing VPAC2. The note with it: for Emax: CHO; for Receptor selectivity ratio VPAC2/PAC1 / Receptor selectivity ratio VPAC2/VPAC1: ratio of cAMP EC50 values. The protocol: Briefly, human PAC1, VPAC1, and VPAC2 receptors expressed in CHO cells were used for all experiments. Cells were grown in 50:50 DMEM-F12 medium with 10% heat-inactivated fetal bovine serum, 1X penicillin-streptomycin supplement, and 500 μg/ml G418 (neomycin) to maintain selection (all from ThermoFisher) at 37°C with 5% CO2 atmosphere. For the cAMP assay, cells were seeded at 20,000 cells/well in a 96 well plate, recovered overnight, then serum starved for 4 h. The cells were then incubated with 500 μM IBMX for 20 min, followed by agonist concentration curves in 500 μM IBMX media for 10 min. The reaction was terminated, boiled, then collected, followed by competition with 7 μg of bovine protein kinase A (Sigma-Aldrich) and ∼1 pmol of ^3H-cAMP (PerkinElmer). The assay was incubated at room temp for 1 h, then collected onto GF/B filter plates and the data read using a MicroBeta2 scintillation counter (PerkinElmer).

The source of these data is article PMC8887546, “Design and Synthesis of Brain Penetrant Glycopeptide Analogues of PACAP With Neuroprotective Potential for Traumatic Brain Injury and Parkinsonism” (Frontiers in drug discovery, 2022).

At human PAC1 receptor, `CCC[C@H](NC(=O)[C@H](CCC(N)=O)NC(=O)[C@H](CCCCN)NC(=O)[C@H](CCCNC(=N)N)NC(=O)[C@H](Cc1ccc(O)cc1)NC(=O)[C@H](CCCNC(=N)N)NC(=O)[C@H](CO)NC(=O)[C@H](Cc1ccc(O)cc1)NC(=O)[C@H](CO)NC(=O)[C@H](CC(=O)O)NC(=O)[C@@H](NC(=O)[C@H](Cc1ccccc1)NC(=O)[C@@H](NC(=O)CNC(=O)[C@H](CC(=O)O)NC(=O)[C@@H](CO)NC(=O)[C@@H](N)Cc1c[nH]cn1)C(C)C)[C@@H](C)O)C(=O)N[C@@H](C)C(=O)N[C@H](C(=O)N[C@@H](CCCCN)C(=O)N[C@@H](CCCCN)C(=O)N[C@@H](Cc1ccc(O)cc1)C(=O)N[C@@H](CC(C)C)C(=O)N[C@@H](C)C(=O)N[C@@H](C)C(=O)N[C@H](C(=O)N[C@@H](CC(C)C)C(=O)N[C@@H](CO[C@@H]1O[C@H](CO)[C@@H](O)[C@H](O)[C@H]1O)C(N)=O)C(C)C)C(C)C` [CRA 3012] came in with a concentration giving a half-maximal response (EC50) of 81.7 nM and an Emax of 80%. In addition, on human VPAC1 receptor, the Emax was determined as 118%, the “Receptor selectivity ratio VPAC1/PAC1” value was determined as 2.62 and the concentration for a half-maximal effect (EC50) was found to be 214 nM. Moreover, at human VPAC2 receptor, the response was half-maximal at 1330 nM (EC50), the maximal response (Emax) was 107%, the “Receptor selectivity ratio VPAC2/PAC1” value stood at 16.30 and the “Receptor selectivity ratio VPAC2/VPAC1” value was found to be 6.22.

On human PAC1 receptor, `CCC[C@H](NC(=O)CNC(=O)[C@H](CC(=O)O)NC(=O)[C@@H](CO)NC(=O)[C@@H](N)Cc1c[nH]cn1)C(=O)N[C@@H](Cc1ccccc1)C(=O)N[C@H](C(=O)N[C@@H](CC(=O)O)C(=O)N[C@@H](CO)C(=O)N[C@@H](Cc1ccc(O)cc1)C(=O)N[C@@H](CO)C(=O)N[C@@H](CCCNC(=N)N)C(=O)N[C@@H](Cc1ccc(O)cc1)C(=O)N[C@@H](CCCNC(=N)N)C(=O)N[C@@H](CCCCN)C(=O)N[C@@H](CCC(N)=O)C(=O)N[C@@H](CCC)C(=O)N[C@@H](C)C(=O)N[C@H](C(=O)N[C@@H](CCCCN)C(=O)N[C@@H](CCCCN)C(=O)N[C@@H](Cc1ccc(O)cc1)C(=O)N[C@@H](CC(C)C)C(=O)N[C@@H](C)C(=O)N[C@@H](C)C(=O)N[C@H](C(=O)N[C@@H](CC(C)C)C(=O)N[C@@H](CO[C@@H]1O[C@H](CO)[C@@H](O)[C@H](O)[C@H]1O)C(N)=O)C(C)C)C(C)C)[C@@H](C)O` [CRA 3016] returned a half-maximal effective concentration (EC50) of 25.4 nM and an Emax of 93%. Besides, at human VPAC1 receptor, the Emax turned out to be 109%, the “Receptor selectivity ratio VPAC1/PAC1” value is reported as 1.13 and the 50% effective concentration (EC50) was 28.6 nM. For the same molecule, on human VPAC2 receptor, a half-maximal response (EC50) required 291 nM, the maximal effect (Emax) stood at 105%, the “Receptor selectivity ratio VPAC2/PAC1” value turned out to be 11.46 and the “Receptor selectivity ratio VPAC2/VPAC1” value is recorded as 10.17.

Consider `CCC[C@H](NC(=O)[C@H](CCC(N)=O)NC(=O)[C@H](CCCCN)NC(=O)[C@H](CCCNC(=N)N)NC(=O)[C@H](Cc1ccc(O)cc1)NC(=O)[C@H](CCCNC(=N)N)NC(=O)[C@H](CO)NC(=O)[C@H](Cc1ccc(O)cc1)NC(=O)[C@H](CO)NC(=O)[C@H](CC(=O)O)NC(=O)[C@@H](NC(=O)[C@H](Cc1ccccc1)NC(=O)[C@@H](NC(=O)[C@H](C)NC(=O)[C@H](CC(=O)O)NC(=O)[C@@H](CO)NC(=O)[C@@H](N)Cc1c[nH]cn1)[C@@H](C)CC)[C@@H](C)O)C(=O)N[C@@H](C)C(=O)N[C@H](C(=O)N[C@@H](CCCCN)C(=O)N[C@@H](CCCCN)C(=O)N[C@@H](Cc1ccc(O)cc1)C(=O)N[C@@H](CC(C)C)C(=O)N[C@@H](C)C(=O)N[C@@H](C)C(=O)N[C@H](C(=O)N[C@@H](CC(C)C)C(=O)N[C@@H](CO[C@@H]1O[C@H](CO)[C@@H](O)[C@H](O)[C@H]1O)C(N)=O)C(C)C)C(C)C` [CRA3010], for which the Emax at human PAC1 receptor came out at 89%; at human VPAC1 receptor, 107%; on human VPAC2 receptor, 112%.

In the case of `[2H]C([2H])([2H])C([2H])(C([2H])([2H])[2H])[C@]([2H])(NC(=O)[C@H](C)NC(=O)[C@H](C)NC(=O)[C@H](CC(C)C)NC(=O)[C@H](Cc1ccc(O)cc1)NC(=O)[C@H](CCCCN)NC(=O)[C@H](CCCCN)NC(=O)[C@@H](NC(=O)[C@H](C)NC(=O)[C@H](CC(C)C)NC(=O)[C@H](CCC(N)=O)NC(=O)[C@H](CCCCN)NC(=O)[C@H](CCCNC(=N)N)NC(=O)[C@H](Cc1ccc(O)cc1)NC(=O)[C@H](CCCNC(=N)N)NC(=O)[C@H](CO)NC(=O)[C@H](Cc1ccc(O)cc1)NC(=O)[C@H](CO)NC(=O)[C@H](CC(=O)O)NC(=O)[C@@H](NC(=O)[C@H](Cc1ccccc1)NC(=O)[C@@H](NC(=O)CNC(=O)[C@H](CC(=O)O)NC(=O)[C@H](CO)NC(=O)[C@@H](N)Cc1c[nH]cn1)[C@@H](C)CC)[C@@H](C)O)C(C)C)C(=O)N[C@@H](CC(C)C)C(=O)N[C@@H](CO[C@@H]1O[C@H](CO)[C@@H](O[C@@H]2O[C@H](CO)[C@@H](O)[C@H](O)[C@H]2O)[C@H](O)[C@H]1O)C(N)=O` [Compound 2LS98Cell], at human PAC1 receptor, the half-maximal effective concentration (EC50) worked out at 0.84 nM and the Emax is 92%. Moreover, on human VPAC1 receptor, the Emax was 93%, the “Receptor selectivity ratio VPAC1/PAC1” value came to 0.62 and the EC50 worked out at 0.52 nM. Besides, at human VPAC2 receptor, the 50% effective concentration (EC50) turned out to be 55.6 nM, the Emax is 91%, the “Receptor selectivity ratio VPAC2/PAC1” value stood at 66.19 and the “Receptor selectivity ratio VPAC2/VPAC1” value worked out at 106.92.

As to `CCCC[C@H](NC(=O)CN(C)C(=O)[C@H](CC(=O)O)NC(=O)[C@@H](CO)NC(=O)[C@H](Cc1c[nH]cn1)NC(C)=O)C(=O)N[C@@H](Cc1ccccc1)C(=O)N[C@H](C(=O)N[C@@H](CC(=O)O)C(=O)N[C@@H](CO)C(=O)N[C@@H](Cc1ccc(O)cc1)C(=O)N[C@@H](CO)C(=O)N[C@@H](CCCNC(=N)N)C(=O)N[C@@H](Cc1ccc(O)cc1)C(=O)N[C@@H](CCCNC(=N)N)C(=O)N[C@@H](CCCCN)C(=O)N[C@@H](CCC(N)=O)C(=O)N[C@@H](CCC)C(=O)N[C@@H](C)C(=O)N[C@H](C(=O)N[C@@H](CCCCN)C(=O)N[C@@H](CCCCN)C(=O)N[C@@H](Cc1ccc(O)cc1)C(=O)N[C@@H](CC(C)C)C(=O)N[C@@H](C)C(=O)N[C@@H](C)C(=O)N[C@H](C(=O)N[C@@H](CC(C)C)C(=O)N[C@@H](CO[C@@H]1O[C@H](CO)[C@@H](O)[C@H](O)[C@H]1O)C(N)=O)C(C)C)C(C)C)[C@@H](C)O` [Ac-CRA 3018], the half-maximal effective concentration (EC50) on human PAC1 receptor is more than 2500 nM; at human VPAC1 receptor, 415 nM; at human VPAC2 receptor, more than 2500 nM. The results for the Emax at human PAC1 receptor, on human VPAC1 receptor and at human VPAC2 receptor were 35%, 36% and 31%, respectively.
